From patent publication US20110173718A1, “HERBICIDE TOLERANT PLANTS” (SYNGENTA CROP PROTECTION, INC., priority 2008, published 2011)

Experiments:
Format in all cases: in vivo
[1] = tested on: tobacco plants expressing Wheat HPPD; assay: Glasshouse spray test, wheat HPPD transgenic tobacco; details: Wheat HPPD T1
Description: Transgenic lines of tobacco, soyabean and corn etc. can be engineered to express various heterologous HPPDs derived from, for example Avena (SEQ ID #26), Wheat (SEQ ID #27), Pseudomonas fluorescens (SEQ ID # 25) and Shewanella colwelliana (SEQ ID #28) as, for example, described in WO 02/46387.
Single copy events amongst the T1 plant lines are identified by their 3:1 segregation ratio (wrt kanamycin and or herbicide) and by quantitative RT-PCR. Seed from the thus selected T1 tobacco (var Samsun) lines are sown in 3 inch diameter pots containing 50% peat, 50% John Innes soil no 3. After growth to the 3 leaf stage, plants are sprayed, as described above, in order to test for herbicide tolerance relative to like-treated non-transgenic tobacco plants. […]
Exactly as described in example 5 of WO 02/46387 the wheat HPPD gene sequence (Embl DD064495) is cloned behind an Arabidopsis Rubisco small subunit (SSU) promoter and in front of a nos gene terminator to produce an SSU Wheat HPPD nos expression cassette' which is cloned into a binary vector and transformed into tobacco to produce a population of 30-50 transgenic events.

weeds [2] = assay: Glasshouse weed control, HST inhibitors alone and with A22, pre-emergence; details: 14 DAT; for pest or weed control at 15.625 g/ha / pest or weed control at 62.5 g/ha / pest or weed control at 250 g/ha: 336 h
Summary of the method: (§1)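 Weeds grown in glasshouse trays (24-27 C day, 18-21 C night, ~15 h photoperiod) and track-sprayed in 0.2% X77 at […], pre-emergence or post-emergence at about 7-12 d. HPPD inhibitor A22 applied at 2 g/ha alone or mixed with HST herbicides. Damage scored 0–100% at 14 DAT; synergy calculated by Colby formula.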

weeds [3] = assay: Glasshouse weed control, HST inhibitors alone and with A22, post-emergence; details: 14 DAT, single replicate; for pest or weed control at 15.625 g/ha / pest or weed control at 62.5 g/ha / pest or weed control at 250 g/ha: 336 h, read-out: % control score, Obs
Summary of the method: as §1

O=c1c(-c2c(F)ccc(F)c2Cl)c(O)c2nccnc2n1CC(F)F [Compound 2.3]
% damage observed 16 DAT ([1]; 37 g/ha): 0% | % damage observed 16 DAT ([1]; 111 g/ha): 0% | % damage observed 16 DAT ([1]; 333 g/ha): 3% | % damage observed 16 DAT ([1]; 1000 g/ha): 8% | BRAPL Obs, % control score (weeds [2]; BRAPL, HST inhibitor rate 15.625 g/ha): 0% | BRAPL Obs, % control score (weeds [2]; BRAPL, HST inhibitor rate 62.5 g/ha): 2% | BRAPL Obs, % control score (weeds [2]; BRAPL, HST inhibitor rate 250 g/ha): 40% | DIGSA Obs, % control score (weeds [2]; DIGSA, HST inhibitor rate 15.625 g/ha): 0% | DIGSA Obs, % control score (weeds [2]; DIGSA, HST inhibitor rate 62.5 g/ha): 0% | DIGSA Obs, % control score (weeds [2]; DIGSA, HST inhibitor rate 250 g/ha): 40% | ECHCG Obs, % control score (weeds [2]; ECHCG, HST inhibitor rate 15.625 g/ha): 0% | ECHCG Obs, % control score (weeds [2]; ECHCG, HST inhibitor rate 62.5 g/ha): 10% | ECHCG Obs, % control score (weeds [2]; ECHCG, HST inhibitor rate 250 g/ha): 50% | PANMI Obs, % control score (weeds [2]; PANMI, HST inhibitor rate 15.625 g/ha): 0% | PANMI Obs, % control score (weeds [2]; PANMI, HST inhibitor rate 62.5 g/ha): 0% | PANMI Obs, % control score (weeds [2]; PANMI, HST inhibitor rate 250 g/ha): 50% | SETFA Obs, % control score (weeds [2]; SETFA, HST inhibitor rate 15.625 g/ha): 0% | SETFA Obs, % control score (weeds [2]; SETFA, HST inhibitor rate 62.5 g/ha): 5% | SETFA Obs, % control score (weeds [2]; SETFA, HST inhibitor rate 250 g/ha): 30% | SIDSP Obs, % control score (weeds [2]; SIDSP, HST inhibitor rate 15.625 g/ha): 0% | SIDSP Obs, % control score (weeds [2]; SIDSP, HST inhibitor rate 62.5 g/ha): 0% | SIDSP Obs, % control score (weeds [2]; SIDSP, HST inhibitor rate 250 g/ha): 20% | % control score, Obs (weeds [3]; BRAPL, 15.625 g/ha alone): 20% | % control score, Obs (weeds [3]; BRAPL, 62.5 g/ha alone): 50% | % control score, Obs (weeds [3]; BRAPL, 250 g/ha alone): 70% | % control score, Obs (weeds [3]; DIGSA, 15.625 g/ha alone): 2% | % control score, Obs (weeds [3]; DIGSA, 62.5 g/ha alone): 35% | % control score, Obs (weeds [3]; DIGSA, 250 g/ha alone): 45% | % control score, Obs (weeds [3]; ECHCG, 15.625 g/ha alone): 5% | % control score, Obs (weeds [3]; ECHCG, 62.5 g/ha alone): 30% | % control score, Obs (weeds [3]; ECHCG, 250 g/ha alone): 40% | % control score, Obs (weeds [3]; PANMI, 15.625 g/ha alone): 2% | % control score, Obs (weeds [3]; PANMI, 62.5 g/ha alone): 55% | % control score, Obs (weeds [3]; PANMI, 250 g/ha alone): 65% | % control score, Obs (weeds [3]; SETFA, 15.625 g/ha alone): 5% | % control score, Obs (weeds [3]; SETFA, 62.5 g/ha alone): 40% | % control score, Obs (weeds [3]; SETFA, 250 g/ha alone): 60% | % control score, Obs (weeds [3]; SIDSP, 15.625 g/ha alone): 10% | % control score, Obs (weeds [3]; SIDSP, 62.5 g/ha alone): 40% | % control score, Obs (weeds [3]; SIDSP, 250 g/ha alone): 55%

O=c1c(-c2c(Cl)ccc(Cl)c2Cl)c(O)c2nccnc2n1CC(F)F [Compound 2.14]
pest or weed control at 15.625 g/ha (weeds [2]; BRAPL, HST inhibitor rate 15.625 g/ha, read-out: BRAPL Obs, % control score): 0% | pest or weed control at 62.5 g/ha (weeds [2]; BRAPL, HST inhibitor rate 62.5 g/ha, read-out: BRAPL Obs, % control score): 2% | pest or weed control at 250 g/ha (weeds [2]; BRAPL, HST inhibitor rate 250 g/ha, read-out: BRAPL Obs, % control score): 20% | pest or weed control at 15.625 g/ha (weeds [2]; PANMI, HST inhibitor rate 15.625 g/ha, read-out: PANMI Obs, % control score): 0% | pest or weed control at 62.5 g/ha (weeds [2]; PANMI, HST inhibitor rate 62.5 g/ha, read-out: PANMI Obs, % control score): 0% | pest or weed control at 250 g/ha (weeds [2]; PANMI, HST inhibitor rate 250 g/ha, read-out: PANMI Obs, % control score): 2% | pest or weed control at 15.625 g/ha (weeds [2]; SIDSP, HST inhibitor rate 15.625 g/ha, read-out: SIDSP Obs, % control score): 0% | pest or weed control at 62.5 g/ha (weeds [2]; SIDSP, HST inhibitor rate 62.5 g/ha, read-out: SIDSP Obs, % control score): 0% | pest or weed control at 250 g/ha (weeds [2]; SIDSP, HST inhibitor rate 250 g/ha, read-out: SIDSP Obs, % control score): 5% | pest or weed control at 15.625 g/ha (weeds [2]; Digitaria sanguinalis, DIGSA, HST inhibitor rate 15.625 g/ha, read-out: DIGSA Obs, % control score): 0% | pest or weed control at 62.5 g/ha (weeds [2]; Digitaria sanguinalis, DIGSA, HST inhibitor rate 62.5 g/ha, read-out: DIGSA Obs, % control score): 0% | pest or weed control at 250 g/ha (weeds [2]; Digitaria sanguinalis, DIGSA, HST inhibitor rate 250 g/ha, read-out: DIGSA Obs, % control score): 5% | pest or weed control at 15.625 g/ha (weeds [2]; Echinochloa crus-galli, ECHCG, HST inhibitor rate 15.625 g/ha, read-out: ECHCG Obs, % control score): 0% | pest or weed control at 62.5 g/ha (weeds [2]; Echinochloa crus-galli, ECHCG, HST inhibitor rate 62.5 g/ha, read-out: ECHCG Obs, % control score): 5% | pest or weed control at 250 g/ha (weeds [2]; Echinochloa crus-galli, ECHCG, HST inhibitor rate 250 g/ha, read-out: ECHCG Obs, % control score): 50% | pest or weed control at 15.625 g/ha (weeds [2]; Setaria faberi, SETFA, HST inhibitor rate 15.625 g/ha, read-out: SETFA Obs, % control score): 0% | pest or weed control at 62.5 g/ha (weeds [2]; Setaria faberi, SETFA, HST inhibitor rate 62.5 g/ha, read-out: SETFA Obs, % control score): 2% | pest or weed control at 250 g/ha (weeds [2]; Setaria faberi, SETFA, HST inhibitor rate 250 g/ha, read-out: SETFA Obs, % control score): 20% | pest or weed control at 15.625 g/ha (weeds [3]; BRAPL, 15.625 g/ha alone): 30% | pest or weed control at 62.5 g/ha (weeds [3]; BRAPL, 62.5 g/ha alone): 60% | pest or weed control at 250 g/ha (weeds [3]; BRAPL, 250 g/ha alone): 60% | pest or weed control at 15.625 g/ha (weeds [3]; PANMI, 15.625 g/ha alone): 40% | pest or weed control at 62.5 g/ha (weeds [3]; PANMI, 62.5 g/ha alone): 60% | pest or weed control at 250 g/ha (weeds [3]; PANMI, 250 g/ha alone): 90% | pest or weed control at 15.625 g/ha (weeds [3]; SIDSP, 15.625 g/ha alone): 15% | pest or weed control at 62.5 g/ha (weeds [3]; SIDSP, 62.5 g/ha alone): 30% | pest or weed control at 250 g/ha (weeds [3]; SIDSP, 250 g/ha alone): 50% | pest or weed control at 15.625 g/ha (weeds [3]; Digitaria sanguinalis, DIGSA, 15.625 g/ha alone): 10% | pest or weed control at 62.5 g/ha (weeds [3]; Digitaria sanguinalis, DIGSA, 62.5 g/ha alone): 20% | pest or weed control at 250 g/ha (weeds [3]; Digitaria sanguinalis, DIGSA, 250 g/ha alone): 20% | pest or weed control at 15.625 g/ha (weeds [3]; Echinochloa crus-galli, ECHCG, 15.625 g/ha alone): 30% | pest or weed control at 62.5 g/ha (weeds [3]; Echinochloa crus-galli, ECHCG, 62.5 g/ha alone): 50% | pest or weed control at 250 g/ha (weeds [3]; Echinochloa crus-galli, ECHCG, 250 g/ha alone): 65% | pest or weed control at 15.625 g/ha (weeds [3]; Setaria faberi, SETFA, 15.625 g/ha alone): 25% | pest or weed control at 62.5 g/ha (weeds [3]; Setaria faberi, SETFA, 62.5 g/ha alone): 60% | pest or weed control at 250 g/ha (weeds [3]; Setaria faberi, SETFA, 250 g/ha alone): 70%
